Assay results published in patent publication US10870660B2, “Nitrogen-containing condensed ring compounds having dopamine D3 antagonistic effect” (Shionogi & Co., Ltd., priority 2016, dated 2020).

Experiments:
[1] = target: human recombinant dopamine D3 receptor (Homo sapiens (Human), UniProt P35462); assay: Test of binding inhibition for the human dopamine D3 receptor ([3H]-Metylspiperone SPA binding); conditions: [3H]-Metylspiperone 2 nM, Jump-In HEK cell membranes, read-out: hD3_Ki
Experimental: Cell membranes: Jump-In HEK cell membranes expressing human recombinant dopamine D3 receptor (4 μg/well)
(§1) Non-specific ligand: (final concentration) 10 μM Butaclamol [(+)-Butaclamol Hydrochioride, D033, Sigma]
(§2) SPA beads: SPA beads [WGA PVT SPA Scintillatiion Beads, RPNQ0001 (500 mg), RPNQ0060 (2 g), PerkinElmer] (0.2 mg/well)
(§3) Incubation time and temperature: 120 min at 25° C.
(§4) Butaclamol or the compounds of the present invention were weighed and DMSO was added to make a 10 mM solution. This solution was diluted to each concentration.
[^3H]-Metylspiperone was weighed and the buffer solution was added to make a 6 nM solution.
(§5) SPA beads were weighed and stirred in water to make a 50 mg/mL solution. Using this solution, a mixed solution with the cell membranes was prepared.
Jump-In HEK Cell membranes (final reaction amount: 4 μg/well), SPA beads (final reaction amount: 0.2 mg/well) and Tris-HCl buffer were mixed and the mixed solution was left still for more than 60 min at 4° C. Then, 50 μL of the mixture was added to each well of the plate. In addition, 25 μL of 6 nM [^3H]-Metylspiperone (final concentration: 2 nM) was added to each well. […] Non-specific binding was calculated based on the radioactivity of [^3H]-Metylspiperone in the presence of 10 μM non-labeled Butaclamol. The total binding was calculated based on the radioactivity of [^3H]-Metylspiperone in the absence of the compounds of the present invention (Vehicle). The Ki values were calculated from dose-response curves.
(§6) Binding activities of the compounds of the present invention were calculated from the following Binding Inhibition Rate (%): Inhibition Rate (%)=[1−(c−a)(b−a)]×100(%) • a: Average cpm of non-specific binding • b: Average cpm of total binding • c: Cpm in the presence of each test compound

[2] = target: human recombinant dopamine D2 receptor (Homo sapiens (Human), UniProt P14416); assay: Test of binding inhibition for the human dopamine D2 receptor ([3H]-Metylspiperone SPA binding); conditions: [3H]-Metylspiperone 1.2 nM, Jump-In HEK cell membranes, read-out: hD2_Ki
human recombinant dopamine D2 receptor, sequence (P14416 whole entry): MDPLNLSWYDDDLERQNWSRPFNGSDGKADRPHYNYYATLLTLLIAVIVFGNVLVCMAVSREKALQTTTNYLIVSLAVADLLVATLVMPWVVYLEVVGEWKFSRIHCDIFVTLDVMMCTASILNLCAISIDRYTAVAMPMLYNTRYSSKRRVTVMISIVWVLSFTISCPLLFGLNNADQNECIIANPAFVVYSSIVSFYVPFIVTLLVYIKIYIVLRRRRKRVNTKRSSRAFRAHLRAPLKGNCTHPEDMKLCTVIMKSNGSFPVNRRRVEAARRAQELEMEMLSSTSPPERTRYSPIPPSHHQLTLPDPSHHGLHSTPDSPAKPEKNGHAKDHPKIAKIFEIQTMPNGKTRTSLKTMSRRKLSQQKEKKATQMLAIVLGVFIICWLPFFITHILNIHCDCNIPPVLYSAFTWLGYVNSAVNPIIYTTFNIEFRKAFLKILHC
Experimental: Cell membranes: Jump-In HEK cell membranes expressing human recombinant dopamine D2 receptor (2 μg/well)
Buffer solution: 50 mM Tris-HCl (35409-45, Nacalai Tesque) (pH 7.4) containing 120 mM NaCl (31320-05, Nacalai Tesque), 1 mM MgCl2.6H2O (20909-55, Nacalai Tesque), 5 mM KCl (28514-75, Nacalai Tesque) and 2 mM CaCl2 (067-31, Nacalai Chemical, Ltd)
Radioligand: (final concentration) 1.2 nM [^3H]-Metylspiperone ([^3H—N-methyl-]-Metylspiperone, NET-856, 83.8 Ci/mmol, PerkinElmer)
as §1, §2, §3, §4
[^3H]-Metylspiperone was weighed and the buffer solution was added to make a 3.6 nM solution.
as §5
225 nL of the solutions of the non-specific ligand or the compounds of the present invention at each concentration (in case of vehicle, final concentration 0.3% DMSO) were added in each well of a 384-well white/clear bottom microplate (3706, Corning). Jump-In HEK Cell membranes (final reaction amount: 2 μg protein/well), SPA beads (final reaction amount: 0.2 mg/well) and the buffer were mixed and the mixed solution was left still for more than or equal to 1 h at 4° C. Then, 50 μL of the mixture was added to each well of the plate. In addition, 25 μL of 3.6 nM [^3H]-Metylspiperone (final concentration: 1.2 nM) was added to each well. The plate was sealed by putting TopSeal-A 96/384 well (6050185, PerkinElmer) on the top of the plate, mixed using stirring deaerator (Welltornado, FK-62, Sakaki) and incubated for 120 min at 25° C. After incubation, the radioactivity of [^3H]-Metylspiperone which was binded to D2 receptor was determined by liquid scintillation counter (1450 Microbeta, PerkinElmer) in each well. Non-specific binding was calculated based on the radioactivity of [^3H]-Metylspiperone in the presence of 10 μM non-labeled Butaclamol. The total binding was calculated using the radioactivity of [^3H]-Metylspiperone in the absence of the compounds of the present invention (Vehicle). The Ki values were calculated from dose-response curves.
as §6

human recombinant dopamine D3 receptor, sequence (P35462 whole entry): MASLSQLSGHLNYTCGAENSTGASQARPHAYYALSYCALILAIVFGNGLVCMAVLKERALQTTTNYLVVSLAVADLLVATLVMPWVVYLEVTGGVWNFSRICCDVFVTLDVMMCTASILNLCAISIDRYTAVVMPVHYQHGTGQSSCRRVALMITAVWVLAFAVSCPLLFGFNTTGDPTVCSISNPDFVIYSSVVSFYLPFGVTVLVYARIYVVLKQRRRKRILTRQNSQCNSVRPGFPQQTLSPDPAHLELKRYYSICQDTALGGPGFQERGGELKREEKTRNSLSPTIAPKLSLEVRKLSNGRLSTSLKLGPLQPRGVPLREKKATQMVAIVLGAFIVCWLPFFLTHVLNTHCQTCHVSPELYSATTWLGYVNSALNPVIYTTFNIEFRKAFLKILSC

| SMILES | Ki [1] [nM] | Ki [2] [nM] |
| --- | --- | --- |
| Cc1ncc(CC(=O)N[C@H]2CC[C@H](CCN3CCc4nc(OCC(F)(F)F)sc4CC3)CC2)o1 [II-085] | 0.096 | 740 |
| Cc1ncc(CC(=O)N[C@H]2CC[C@H](CCN3CCc4cn(CCC(F)(F)F)nc4CC3)CC2)s1 [II-088] | 7.4 | > 1900 |
| Cc1ncc(CC(=O)N[C@H]2CC[C@H](CCN3CCc4nc(OCC5CC5)sc4CC3)CC2)s1 [II-090] | 0.64 | > 1900 |
| Cc1ncc(CC(=O)N[C@H]2CC[C@H](CCN3CCc4nc(OCC(C)(C)F)sc4CC3)CC2)s1 [II-099] | 0.52 | > 1900 |
| O=C(NCCCCN1CCc2ccc(OCC(F)(F)F)nc2CC1)c1cc2ccccc2[nH]1 [II-105] | 0.11 | 1100 |
| Cc1nc(CC(=O)N[C@H]2CC[C@H](CCN3CCc4ccc(OCC(F)(F)F)nc4CC3)OC2)no1 [III-001] | 0.5 | 1100 |
| Cc1ncc(CC(=O)N[C@H]2CC[C@H](CCN3CCc4cc(C)c(OCC(F)F)nc4CC3)OC2)s1 [III-008] | 0.25 | 480 |
| CN1Cc2c(C(=O)N[C@H]3CC[C@H](CCN4CCc5ccc(OCC(C)(F)F)nc5CC4)CC3)cccc2C1=O [III-024] | 0.012 | 140 |
| Cc1ncc(CC(=O)N[C@H]2CC[C@H](CCN3CCc4ccc(OC5CCOC5)nc4CC3)CC2)s1 (some centres unmarked) [III-052] | 1.1 | > 1800 |
| CC(Oc1nc2c(s1)CCN(CC[C@H]1CC[C@H](NC(=O)c3cccc4nn(C)cc34)CC1)CC2)C(F)(F)F (some centres unmarked) [III-063] | 0.13 | > 1900 |
| Cn1cc2c(C(=O)N[C@H]3CC[C@H](CCN4CCc5ccc(C6CC6)nc5CC4)CC3)cccc2n1 [III-074] | 0.66 | > 1800 |
| Cc1nnc(CC(=O)N[C@H]2CC[C@](F)(CCN3CCc4ccc(OCC(F)(F)F)nc4CC3)CC2)o1 [III-082] | 0.45 | 410 |
| Cc1cc(OCC(=O)N[C@H]2CC[C@](F)(CCN3CCc4ccc(OCC(F)(F)F)nc4CC3)CC2)no1 [III-104] | 0.53 | > 1700 |
| Cc1ncc(CC(=O)N[C@H]2CC[C@H](CCN3CCc4sc(OCC(F)(F)F)nc4C(C)C3)CC2)s1 (some centres unmarked) [III-110] | 0.49 | 610 |
| Cn1c(C(=O)N[C@H]2CC[C@H](CCN3CCc4nc(OCC(F)(F)F)sc4CC3)CC2)cccc1=O [III-128] | 0.12 | 370 |
| Cn1cc2c(C(=O)N[C@H]3CC[C@H](CCN4CCc5ccc(OC6CC(F)(F)C6)nc5CC4)CC3)cccc2n1 [III-155] | 0.25 | > 1700 |
| CC(CF)Oc1nc2c(s1)CCN(CC[C@H]1CC[C@H](NC(=O)c3cccc4nn(C)cc34)CC1)CC2 (some centres unmarked) [III-159] | 0.91 | > 1700 |
| Cc1ncc(OCC(=O)N[C@H]2CC[C@H](CCN3CCc4nc(OCC(F)(F)F)sc4CC3)OC2)cn1 [III-165] | 0.81 | 670 |
| Cn1cc(/C=C/C(=O)N[C@H]2CC[C@H](CCN3CCc4nc(OCC(F)(F)F)sc4CC3)OC2)cn1 [III-168] | 0.13 | 140 |
| Cc1cc(CC(=O)N[C@H]2CC[C@H](CCN3CCc4nc(OCC(F)(F)F)sc4CC3)OC2)on1 [III-171] | 0.47 | > 1700 |
| Cn1cc(OCC(=O)N[C@H]2CC[C@H](CCN3CCc4nc(OCC(F)(F)F)sc4CC3)OC2)cn1 [III-175] | 0.68 | 650 |
| Cc1nc(CC(=O)N[C@H]2CC[C@H](CCN3CCc4nc(OCC(F)(F)F)sc4CC3)OC2)no1 [III-180] | 0.72 | 460 |
| Cc1ncc(CC(=O)N[C@H]2CC[C@H](C(F)CN3CCc4ccc(OCC(F)(F)F)nc4CC3)CC2)s1 (some centres unmarked) [III-216] | 1.3 | > 1700 |
| Cc1cnc(CC(=O)N[C@H]2CC[C@H](CCN3CCc4nc(OCC(F)(F)F)sc4CC3)OC2)o1 [III-220] | 0.78 | 1100 |
| Cc1ncc(CC(=O)N[C@H]2CC[C@H](CCN3CCc4ccc(OCC(F)(F)F)nc4CC3)OC2)o1 [III-231] | 0.7 | 490 |
| Cn1cc2c(C(=O)N[C@H]3CC[C@H](C(O)CN4CCc5ccc(OCC(F)(F)F)nc5CC4)CC3)cccc2n1 (some centres unmarked) [III-248] | 1.6 | > 1900 |
| Cc1nnc(CC(=O)N[C@H]2CC[C@](F)(CCN3CCc4nc(OCC(F)(F)F)sc4CC3)CC2)o1 [III-253] | 0.58 | 610 |

Further compounds by falling Ki [1], results first:

| Ki [1] [nM] | Ki [2] [nM] | SMILES |
| --- | --- | --- |
| 0.99 | 640 | Cn1cc(CC(=O)N[C@H]2CC[C@H](CCN3CCc4ccc(OCC(F)(F)F)nc4CC3)OC2)cn1 [III-230] |
| 0.79 | 1400 | Cc1ncc(CC(=O)N[C@H]2CC[C@H](CCN3CCc4ccc(OCC(C)F)nc4CC3)CC2)s1 (some centres unmarked) [III-203] |
| 0.77 | 460 | Cc1cnc(CC(=O)N[C@H]2CC[C@H](CCN3CCc4ccc(OCC(F)(F)F)nc4CC3)OC2)o1 [III-234] |
| 0.73 | > 1700 | Cn1cc2c(C(=O)N[C@H]3CC[C@H](CCN4CCc5nc(OCC(C)(C)F)sc5CC4)CC3)cccc2n1 [III-076] |
| 0.67 | > 1800 | Cc1cc(CC(=O)N[C@H]2CC[C@](F)(CCN3CCc4nc(OCC(F)(F)F)sc4CC3)CC2)no1 [III-255] |
| 0.57 | 480 | Cn1cc(CC(=O)N[C@H]2CC[C@](F)(CCN3CCc4nc(OCC(F)(F)F)sc4CC3)CC2)cn1 [III-261] |
| 0.43 | 590 | Cc1ncccc1C(=O)N[C@H]1CC[C@](F)(CCN2CCc3nc(OCC(F)(F)F)sc3CC2)CC1 [III-252] |
| 0.43 | 570 | Cc1ncc(OCC(=O)N[C@H]2CC[C@](F)(CCN3CCc4nc(OCC(F)(F)F)sc4CC3)CC2)cn1 [III-254] |
| 0.4 | 380 | Cc1cc2c(C(=O)N[C@H]3CC[C@H](CCN4CCc5nc(OCC(F)(F)F)sc5CC4)OC3)cccn2n1 [III-169] |
| 0.34 | > 1700 | Cn1cc2c(C(=O)N[C@H]3CC[C@H](CCN4CCc5nc(O[C@H]6C[C@H](F)C6)sc5CC4)CC3)cccc2n1 [III-158] |
| 0.31 | 240 | CC(C)C(=O)N[C@H]1CC[C@H](CCN2CCc3nc(OCC(F)(F)F)sc3CC2)CC1 [III-031] |
| 0.31 | 310 | Cc1ncc(OCC(=O)N[C@H]2CC[C@](F)(CCN3CCc4ccc(OCC(F)(F)F)nc4CC3)CC2)cn1 [III-088] |
| 0.24 | > 1900 | Cn1cc2c(C(=O)N[C@H]3CC[C@H](CCN4CCc5nc(OC6CC(F)(F)C6)sc5CC4)CC3)cccc2n1 [III-244] |
| 0.16 | 330 | Cc1cc2c(C(=O)N[C@H]3CC[C@H](CCN4CCc5ccc(OCC(F)(F)F)nc5CC4)OC3)cccn2n1 [III-228] |
| 0.11 | 400 | Cn1cc(CC(=O)N[C@H]2CC[C@](F)(CCN3CCc4ccc(OCC(F)(F)F)nc4CC3)CC2)cn1 [III-102] |
| 0.086 | 120 | CCN1Cc2c(C(=O)N[C@H]3CC[C@H](CCN4CCc5ccc(OCC(F)(F)F)nc5CC4)OC3)cccc2C1=O [III-236] |
| 0.059 | 260 | Cn1cc2c(C(=O)N[C@H]3CC[C@H](CCN4CCc5ccc(OCC(F)(F)F)nc5CC4)OC3)cccc2n1 [II-087] |
| 0.057 | 44 | Cn1cc(/C=C/C(=O)N[C@H]2CC[C@H](CCN3CCc4nc(OCC(F)(F)F)sc4CC3)CC2)cn1 [III-138] |
| 0.026 | 640 | CC(Oc1nc2c(s1)CCN(CC[C@H]1CC[C@H](NC(=O)c3cccc4c3CN(C)C4=O)CC1)CC2)C(F)(F)F (some centres unmarked) [III-064] |
